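Exposure lasted 48 hours, with cells grown in 96-well plates and compounds tested at five concentrations. At the GI50, growth is halved.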 Activity calls are given as the source filed them. Rule as the data show it: active = GI50 up to about 1.1 µM and inactive = higher.
Key:
Experiment in all cases: DTP human tumour cell line panel, 48 h
HOP-18 = system: HOP-18
HOP-92 = system: HOP-92
IGROV-1 = system: IGROV-1
UO-31 = system: UO-31
SNB-19 = system: SNB-19
DMS-114 = system: DMS-114
SF-295 = system: SF-295
NCI-H23 = system: NCI-H23
TK-10 = system: TK-10
KM-20L2 = system: KM-20L2
RXF 393 = system: RXF 393
SK-MEL-28 = system: SK-MEL-28
OVCAR-3 = system: OVCAR-3
DMS-273 = system: DMS-273
UACC-62 = system: UACC-62
K562 = system: K562
CCRF-CEM = system: CCRF-CEM
SN12C = system: SN12C
HCT-15 = system: HCT-15
SNB-75 = system: SNB-75
HOP-62 = system: HOP-62
A498 = system: A498
NCI-H226 = system: NCI-H226
NCI-H522 = system: NCI-H522
LXFL 529 = system: LXFL 529
SF-268 = system: SF-268
OVCAR-4 = system: OVCAR-4
A549 = system: A549
MOLT-4 = system: MOLT-4
SF-539 = system: SF-539
U-251 = system: U-251
SK-MEL-5 = system: SK-MEL-5
M19-MEL = system: M19-MEL
COLO 205 = system: COLO 205
KM12 = system: KM12
OVCAR-8 = system: OVCAR-8
SW-620 = system: SW-620
EKVX = system: EKVX
ACHN = system: ACHN
HCT-116 = system: HCT-116
HL-60 = system: HL-60
CAKI-1 = system: CAKI-1
SR = system: SR
786-0 = system: 786-0
SK-OV-3 = system: SK-OV-3
MCF7 = system: MCF7
SK-MEL-2 = system: SK-MEL-2
SNB-78 = system: SNB-78
HCC 2998 = system: HCC 2998
RXF 631 = system: RXF 631
UACC-257 = system: UACC-257
NCI/ADR-RES = system: NCI/ADR-RES
NCI-H460 = system: NCI-H460
XF498 = system: XF498
Malme-3M = system: Malme-3M
DLD-1 = system: DLD-1
HT-29 = system: HT-29
LOX IMVI = system: LOX IMVI
OVCAR-5 = system: OVCAR-5
RPMI-8226 = system: RPMI-8226
M14 = system: M14

## O=NN(CCCl)C(=O)N[C@H]1CC[C@@H](C(=O)O)CC1
HOP-18
  GI50: > 69.5 µM (inactive)
HOP-92
  GI50: > 76 µM (inactive)
IGROV-1
  GI50: > 100 µM (inactive)
UO-31
  GI50: > 100 µM (inactive)
SNB-19
  GI50: 70 µM (inactive)
DMS-114
  GI50: 52.7 µM (inactive)
SF-295
  GI50: 52.6 µM (inactive)
NCI-H23
  GI50: 97.7 µM (inactive)
TK-10
  GI50: > 100 µM (inactive)
KM-20L2
  GI50: > 100 µM (inactive)
RXF 393
  GI50: > 100 µM (inactive)
SK-MEL-28
  GI50: > 100 µM (inactive)
OVCAR-3
  GI50: > 100 µM (inactive)
DMS-273
  GI50: > 100 µM (inactive)
UACC-62
  GI50: 21.3 µM (inactive)
K562
  GI50: 91 µM (inactive)
CCRF-CEM
  GI50: 36.6 µM (inactive)
SN12C
  GI50: > 100 µM (inactive)
HCT-15
  GI50: > 100 µM
SNB-75
  GI50: > 72.3 µM (inactive)
HOP-62
  GI50: 83 µM (inactive)
A498
  GI50: > 100 µM (inactive)
NCI-H226
  GI50: > 100 µM (inactive)
NCI-H522
  GI50: 23 µM (inactive)
LXFL 529
  GI50: > 100 µM (inactive)
SF-268
  GI50: 32.8 µM (inactive)
OVCAR-4
  GI50: > 100 µM (inactive)
A549
  GI50: 89.7 µM (inactive)
MOLT-4
  GI50: 32.2 µM (inactive)
SF-539
  GI50: 29.6 µM (inactive)
U-251
  GI50: 40.9 µM (inactive)
SK-MEL-5
  GI50: > 100 µM (inactive)
M19-MEL
  GI50: > 100 µM (inactive)
COLO 205
  GI50: > 100 µM (inactive)
KM12
  GI50: > 100 µM (inactive)
OVCAR-8
  GI50: > 100 µM (inactive)
SW-620
  GI50: > 76.6 µM (inactive)
EKVX
  GI50: > 100 µM (inactive)
ACHN
  GI50: 65.6 µM (inactive)
HCT-116
  GI50: > 100 µM (inactive)
HL-60
  GI50: 33.7 µM (inactive)
CAKI-1
  GI50: 92.9 µM (inactive)
SR
  GI50: 40.2 µM (inactive)
786-0
  GI50: 40.7 µM (inactive)
SK-OV-3
  GI50: > 100 µM (inactive)
MCF7
  GI50: > 100 µM (inactive)
SK-MEL-2
  GI50: > 100 µM (inactive)
SNB-78
  GI50: > 100 µM (inactive)
HCC 2998
  GI50: > 100 µM (inactive)
RXF 631
  GI50: > 100 µM (inactive)
UACC-257
  GI50: > 100 µM (inactive)
NCI/ADR-RES
  GI50: > 100 µM (inactive)
NCI-H460
  GI50: 49.3 µM (inactive)
XF498
  GI50: > 100 µM (inactive)
Malme-3M
  GI50: > 96.2 µM (inactive)
DLD-1
  GI50: > 100 µM (inactive)
HT-29
  GI50: > 100 µM (inactive)
LOX IMVI
  GI50: 45.1 µM (inactive)
OVCAR-5
  GI50: > 100 µM (inactive)
RPMI-8226
  GI50: 46.3 µM (inactive)
M14
  GI50: > 100 µM (inactive)

Source: ChEMBL document CHEMBL1201862, “PubChem BioAssay data set” (2004)
